Values after ≈ are worked out from the molar mass of the structure shown.
What was measured:
Assay type in all cases: cell-based
[1] = test system: Staphylococcus aureus ATCC29213; test: MIC, microbroth dilution (NCCLS); conditions: rifS strain, Cation-Adjusted Mueller-Hinton Broth, 37° C., read-out: Antimicrobial activity (MIC)
[2] = test system: Staphylococcus aureus ATCC29213 rpoB^D417Y; test: microbe, parasite or virus in culture; conditions: ATCC29213, read-out: Antimicrobial activity (MIC)
Protocol: (§1) Representative compounds were assayed for antimicrobial activity as follows: Minimum Inhibitory Concentrations (“MICs”) were determined by the microbroth dilution method as per NCCLS guidelines (National Committee for Clinical Laboratory Standards. 2000. Methods for dilution antimicrobial susceptibility tests for bacteria that grow aerobically, 5th ed. M7-A5. National Committee for Clinical Laboratory Standards, Wayne, Pa.), except that all growth incubations were conducted at 37° C. Bacterial cultures were tested in the following bacteriological media: S. aureus, S. epidermidis, and E. coli in Cation-Adjusted Mueller-Hinton Broth, S. pneumoniae in THY Broth supplemented with 1 mg/mL catalase under 5% CO2 atmosphere, S. pyogenes in THY Broth, E. faecalis in BHI Broth, H. influenzae in BHI Broth supplemented with 0.75 μL of 1 mg/mL NAD and 150 μL of 1 mg/ml hematin per 5 mL, and M. smegmatis in Middlebrook Broth plus ADC Enrichment.
(§2) S. aureus ATCC 29213 RpoB^H418Y is a rifampin-resistant strain with a mutation in RNA polymerase, the biological target of rifamycin antibiotics. […] S. aureus EN1252a gyrA^S84L grlA^S80F is a quinolone-resistant strain due to double mutations to DNA gyrase and topoisomerase IV, the two biological targets for quinolone antibiotics.

[3] = test system: Staphylococcus aureus ATCC29213 rpoB^H418Y; test: microbe, parasite or virus in culture; conditions: ATCC29213, read-out: Antimicrobial activity (MIC)
Protocol: as §1, §2

[4] = test system: Staphylococcus aureus EN1252a gyrA^S84L grlA^S80F; test: microbe, parasite or virus in culture; conditions: read-out: Antimicrobial activity (MIC)
Protocol: as §1, §2

[5] = test system: Staphylococcus epidermidis ATCC12228; test: MIC, microbroth dilution (NCCLS); conditions: rifS strain, Cation-Adjusted Mueller-Hinton Broth, 37° C., read-out: Antimicrobial activity (MIC)
[6] = test system: Streptococcus pneumoniae ATCC6303; test: MIC, microbroth dilution (NCCLS); conditions: rifS strain, THY Broth with 1 mg/mL catalase, 5% CO2, 37° C., read-out: Antimicrobial activity (MIC)
[7] = test system: Streptococcus pyogenes ATCC19615; test: MIC, microbroth dilution (NCCLS); conditions: rifS strain, THY Broth, 37° C., read-out: Antimicrobial activity (MIC)
[8] = test system: Enterococcus faecalis ATCC29212; test: MIC, microbroth dilution (NCCLS); conditions: rifS strain, BHI Broth, 37° C., read-out: Antimicrobial activity (MIC)
[9] = test system: Haemophilus influenzae ATCC10211; test: MIC, microbroth dilution (NCCLS); conditions: rifS strain, BHI Broth with NAD and hematin, 37° C., read-out: Antimicrobial activity (MIC)
[10] = test system: Escherichia coli ATCC25922; test: MIC, microbroth dilution (NCCLS); conditions: rifS strain, Cation-Adjusted Mueller-Hinton Broth, 37° C., read-out: Antimicrobial activity (MIC)
[11] = test system: Mycobacterium smegmatis ATCC700084; test: MIC, microbroth dilution (NCCLS); conditions: Mycolicibacterium smegmatis, rifS strain, Middlebrook Broth plus ADC Enrichment, 37° C., read-out: Antimicrobial activity (MIC)

Structure (SMILES)	MIC [1] [µg/mL]	MIC [2] [µg/mL]	MIC [3] [µg/mL]	MIC [4] [µg/mL]	MIC [5] [µg/mL]	MIC [6] [µg/mL]	MIC [7] [µg/mL]	MIC [8] [µg/mL]	MIC [9] [µg/mL]	MIC [10] [µg/mL]	MIC [11] [µg/mL]
CO[C@H]1/C=C/O[C@@]2(C)Oc3c(C)c(O)c4c(c3C2=O)C(=O)C(NCCN2CCN(c3ccc(N5C[C@H](CNC(C)=O)OC5=O)cc3F)CC2)=C(NC(=O)/C(C)=C\C=C\[C@H](C)[C@H](O)[C@@H](C)[C@@H](O)[C@@H](C)[C@H](OC(C)=O)[C@@H]1C)C4=O [Example 24, (S)-3-[4-[4-(5-Acetylaminomethyl-2-oxo-oxazolidin-3-yl)-2-fluoro-phenyl]-piperazin-1-ylethylamino]-rifamycin S]	0.004 to 0.5 (≈ 0.00373 to 0.466 µM)	0.06 to 32 (≈ 0.0559 to 29.8 µM)	0.06 to 16 (≈ 0.0559 to 14.9 µM)	0.004 to 0.5 (≈ 0.00373 to 0.466 µM)	0.008 to 0.063 (≈ 0.00745 to 0.0587 µM)	0.008 to 0.125 (≈ 0.00745 to 0.116 µM)	0.008 to 0.063 (≈ 0.00745 to 0.0587 µM)	2 to 32 (≈ 1.86 to 29.8 µM)	0.125 to 2 (≈ 0.116 to 1.86 µM)	0.125 to 8 (≈ 0.116 to 7.45 µM)	0.5 to 64
CO[C@H]1/C=C/O[C@@]2(C)Oc3c(C)c(O)c4c(c3C2=O)C(=O)C(N2CCN(c3cc5c(cc3F)c(=O)c(C(=O)O)cn5C3CC3)CC2)=C(NC(=O)/C(C)=C\C=C\[C@H](C)[C@H](O)[C@@H](C)[C@@H](O)[C@@H](C)[C@H](OC(C)=O)[C@@H]1C)C4=O [Example 4, 3-[4-(3-Carboxy-1-cyclopropyl-6-fluoro-4-oxo-1,4-dihydroquinolin-7-yl)piperazin-1-yl]rifamycin S]	0.004 to 0.5 (≈ 0.0039 to 0.488 µM)	0.06 to 32 (≈ 0.0585 to 31.2 µM)	0.06 to 16 (≈ 0.0585 to 15.6 µM)	0.004 to 0.5 (≈ 0.0039 to 0.488 µM)	0.008 to 0.063 (≈ 0.0078 to 0.0615 µM)	0.008 to 0.125 (≈ 0.0078 to 0.122 µM)	0.008 to 0.063 (≈ 0.0078 to 0.0615 µM)	2 to 32 (≈ 1.95 to 31.2 µM)	0.125 to 2 (≈ 0.122 to 1.95 µM)	0.125 to 8 (≈ 0.122 to 7.8 µM)	0.5 to 64
CO[C@H]1/C=C/O[C@@]2(C)Oc3c(C)c(O)c4c(c3C2=O)C(=O)C(N2CCN(c3ccc(N5C[C@H](CNC(C)=O)OC5=O)cc3F)CC2)=C(NC(=O)/C(C)=C\C=C\[C@H](C)[C@H](O)[C@@H](C)[C@@H](O)[C@@H](C)[C@H](OC(C)=O)[C@@H]1C)C4=O [Example 23, (S)-3-[4-[4-(5-Acetylaminomethyl-2-oxo-oxazolidin-3-yl)-2-fluoro-phenyl]-piperazin-1-yl]rifamycin S]	0.004 to 0.5 (≈ 0.00388 to 0.485 µM)	0.06 to 32 (≈ 0.0582 to 31.1 µM)	0.06 to 16 (≈ 0.0582 to 15.5 µM)	0.004 to 0.5 (≈ 0.00388 to 0.485 µM)	0.008 to 0.063 (≈ 0.00777 to 0.0612 µM)	0.008 to 0.125 (≈ 0.00777 to 0.121 µM)	0.008 to 0.063 (≈ 0.00777 to 0.0612 µM)	2 to 32 (≈ 1.94 to 31.1 µM)	0.125 to 2 (≈ 0.121 to 1.94 µM)	0.125 to 8 (≈ 0.121 to 7.77 µM)	0.5 to 64
COc1c(N2CCCC(NC(=O)C3CN(C4=C5NC(=O)/C(C)=C\C=C\[C@H](C)[C@H](O)[C@@H](C)[C@@H](O)[C@@H](C)[C@H](OC(C)=O)[C@H](C)[C@@H](OC)/C=C/O[C@@]6(C)Oc7c(C)c(O)c(c(c7C6=O)C4=O)C5=O)C3)C2)c(F)cc2c(=O)c(C(=O)O)cn(C3CC3)c12 (mixture of isomers) [Example 46, 3-{3-[1-(3-Carboxy-1-cyclopropyl-6-fluoro-8-methoxy-4-oxo-1,4-dihydroquinolin-7-yl)-piperidin-3-ylcarbamoyl]-azetidin-1-yl}rifamycin S]	0.004 to 0.5	0.06 to 32	0.06 to 16	0.004 to 0.5	0.008 to 0.063	0.008 to 0.125	0.008 to 0.063	2 to 32	0.125 to 2	0.125 to 8	0.5 to 64
COc1c(N2CC(NC3CCN(C4=C5NC(=O)/C(C)=C\C=C\[C@H](C)[C@H](O)[C@@H](C)[C@@H](O)[C@@H](C)[C@H](OC(C)=O)[C@H](C)[C@@H](OC)/C=C/O[C@@]6(C)Oc7c(C)c(O)c(c(c7C6=O)C4=O)C5=O)CC3)C2)c(F)cc2c(=O)c(C(=O)O)cn(C3CC3)c12 [Example 33, 3-{4-[1-(3-Carboxy-1-cyclopropyl-6-fluoro-8-methoxy-4-oxo-1,4-dihydroquinolin-7-yl)-azetidin-3-ylamino]-piperidin-1-yl}rifamycin S]	0.004 to 0.5 (≈ 0.00356 to 0.445 µM)	0.06 to 32 (≈ 0.0534 to 28.5 µM)	0.06 to 16 (≈ 0.0534 to 14.2 µM)	0.004 to 0.5 (≈ 0.00356 to 0.445 µM)	0.008 to 0.063 (≈ 0.00712 to 0.056 µM)	0.008 to 0.125 (≈ 0.00712 to 0.111 µM)	0.008 to 0.063 (≈ 0.00712 to 0.056 µM)	2 to 32 (≈ 1.78 to 28.5 µM)	0.125 to 2 (≈ 0.111 to 1.78 µM)	0.125 to 8 (≈ 0.111 to 7.12 µM)	0.5 to 64
CO[C@H]1/C=C/O[C@@]2(C)Oc3c(C)c(O)c4c(c3C2=O)C(=O)C(NC2CCN(c3c(F)cc5c(=O)c(C(=O)O)cn(C6CC6)c5c3Cl)C2)=C(NC(=O)/C(C)=C\C=C\[C@H](C)[C@H](O)[C@@H](C)[C@@H](O)[C@@H](C)[C@H](OC(C)=O)[C@@H]1C)C4=O (mixture of isomers) [Example 7, (R/S)-3-[1-(3-Carboxy-8-chloro-1-cyclopropyl-6-fluoro-4-oxo-1,4-dihydroquinolin-7-yl)-pyrrolidin-3-ylamino]rifamycin S]	0.004 to 0.5 (≈ 0.00378 to 0.472 µM)	0.06 to 32 (≈ 0.0566 to 30.2 µM)	0.06 to 16 (≈ 0.0566 to 15.1 µM)	0.004 to 0.5 (≈ 0.00378 to 0.472 µM)	0.008 to 0.063 (≈ 0.00755 to 0.0595 µM)	0.008 to 0.125 (≈ 0.00755 to 0.118 µM)	0.008 to 0.063 (≈ 0.00755 to 0.0595 µM)	2 to 32 (≈ 1.89 to 30.2 µM)	0.125 to 2 (≈ 0.118 to 1.89 µM)	0.125 to 8 (≈ 0.118 to 7.55 µM)	0.5 to 64
CO[C@H]1/C=C/O[C@@]2(C)Oc3c(C)c(O)c4c(c3C2=O)C(=O)C(N2CC(C(=O)NC3CCN(c5c(F)cc6c(=O)c(C(=O)O)cn(C7CC7)c6c5Cl)C3)C2)=C(NC(=O)/C(C)=C\C=C\[C@H](C)[C@H](O)[C@@H](C)[C@@H](O)[C@@H](C)[C@H](OC(C)=O)[C@@H]1C)C4=O (mixture of isomers) [Example 43, (R/S)-3-{3-[1-(3-Carboxy-8-chloro-1-cyclopropyl-6-fluoro-4-oxo-1,4-dihydroquinolin-7-yl)-pyrrolidin-3-ylcarbamoyl]-azetidin-1-yl}rifamycin S]	0.004 to 0.5 (≈ 0.0035 to 0.438 µM)	0.06 to 32 (≈ 0.0525 to 28 µM)	0.06 to 16 (≈ 0.0525 to 14 µM)	0.004 to 0.5 (≈ 0.0035 to 0.438 µM)	0.008 to 0.063 (≈ 0.007 to 0.0551 µM)	0.008 to 0.125 (≈ 0.007 to 0.109 µM)	0.008 to 0.063 (≈ 0.007 to 0.0551 µM)	2 to 32 (≈ 1.75 to 28 µM)	0.125 to 2 (≈ 0.109 to 1.75 µM)	0.125 to 8 (≈ 0.109 to 7 µM)	0.5 to 64
CO[C@H]1/C=C/O[C@@]2(C)Oc3c(C)c(O)c4c(O)c(c(CN5CCN(c6nc7c(cc6F)c(=O)c(C(=O)O)cn7-c6ccc(F)cc6F)CC5)c(O)c4c3C2=O)NC(=O)/C(C)=C\C=C\[C@H](C)[C@H](O)[C@@H](C)[C@@H](O)[C@@H](C)[C@H](OC(C)=O)[C@@H]1C [Example 14, 3-[4-[3-carboxy-1-(2,4-Difluoro-phenyl)-6-fluoro-4-oxo-1,4-dihydro-[1,8]naphthyridin-7-yl]piperazin-1-ylmethyl]rifamycin SV]	0.004 to 0.5 (≈ 0.00359 to 0.449 µM)	0.06 to 32 (≈ 0.0539 to 28.7 µM)	0.06 to 16 (≈ 0.0539 to 14.4 µM)	0.004 to 0.5 (≈ 0.00359 to 0.449 µM)	0.008 to 0.063 (≈ 0.00718 to 0.0565 µM)	0.008 to 0.125 (≈ 0.00718 to 0.112 µM)	0.008 to 0.063 (≈ 0.00718 to 0.0565 µM)	2 to 32 (≈ 1.8 to 28.7 µM)	0.125 to 2 (≈ 0.112 to 1.8 µM)	0.125 to 8 (≈ 0.112 to 7.18 µM)	0.5 to 64
CO[C@H]1/C=C/O[C@@]2(C)Oc3c(C)c(O)c4c(O)c(c(CN[C@H]5CCN(c6cc7c(cc6F)c(=O)c(C(=O)O)cn7C6CC6)C5)c(O)c4c3C2=O)NC(=O)/C(C)=C\C=C\[C@H](C)[C@H](O)[C@@H](C)[C@@H](O)[C@@H](C)[C@H](OC(C)=O)[C@@H]1C [Example 16, (S)-3-[1-(3-carboxy-1-cyclopropyl-6-fluoro-4-oxo-1,4-dihydroquinolin-7-yl)-pyrrolidinyl-3-aminomethyl]rifamycin SV]	0.004 to 0.5 (≈ 0.00384 to 0.48 µM)	0.06 to 32 (≈ 0.0576 to 30.7 µM)	0.06 to 16 (≈ 0.0576 to 15.4 µM)	0.004 to 0.5 (≈ 0.00384 to 0.48 µM)	0.008 to 0.063 (≈ 0.00768 to 0.0605 µM)	0.008 to 0.125 (≈ 0.00768 to 0.12 µM)	0.008 to 0.063 (≈ 0.00768 to 0.0605 µM)	2 to 32 (≈ 1.92 to 30.7 µM)	0.125 to 2 (≈ 0.12 to 1.92 µM)	0.125 to 8 (≈ 0.12 to 7.68 µM)	0.5 to 64
